Assay results as given in patent publication US20250353852A1, “COMPOUNDS AND COMPOSITIONS THAT INHIBIT PIKFYVE” (Kineta, Inc., priority 2021, published 2025).

target: full-length human PIKFYVE (Homo sapiens (Human), UniProt Q9Y2I7, L932S/Q1183K/Q995L/S1033A/S696N/T998S); assay: PIKfyve biochemical assay (ADP-Glo Kinase assay, Carna Biosciences); settings: class symbols
Excerpt: PIKfyve Biochemical Assay. The biochemical […] inhibition assays were run by Carna Biosciences according to proprietary methodology based on the Promega […] Kinase assay. […] NP_055855.2] was expressed as N-terminal GST-fusion protein (265 kDa) using baculovirus expression system. GST-PIKFYVE was purified by using glutathione sepharose chromatography and used in an ADP-GloTM Kinase assay (Promega). Reactions were set up by adding the test compound solution, substrate solution, ATP solution and kinase solution, each at 4× final concentrations. Reactions were prepared with assay buffer (50 mM MOPS, 1 mM DTT, pH7.2), mixed, and incubated in black 384 well polystyrene plates for 1 hour at room temperature. ADP-Glo^TM reagent was then added for 40 minutes, followed by kinase detection reagent for an additional 40 minutes. The kinase activity was evaluated by detecting relative light units on a luminescence plate reader. […] IC50 values were calculated from concentration vs % inhibition curves by fitting to a four-parameter logistic curve. […] The biochemical […] inhibition assays were run by Carna Biosciences according to proprietary methodology based on the Promega ADP-GloTM Kinase assay. […] GST-PIKFYVE was purified by using glutathione sepharose chromatography and used in an ADP-GIoTM Kinase assay (Promega). Reactions were set up by adding the test compound solution, substrate solution, ATP solution and kinase solution, each at 4× final concentrations. Reactions were prepared with assay buffer (50 mM MOPS, 1 mM DTT, pH7.2), mixed, and incubated in black 384 well polystyrene plates for 1 hour at room temperature. ADP-GIoTM reagent was then added for 40 minutes, followed by kinase detection reagent for an additional 40 minutes. The kinase activity was evaluated by detecting relative light units on a luminescence plate reader. […] IC50 values were calculated from concentration vs % inhibition curves by fitting to a four-parameter logistic curve. […] The same compounds were also tested in both FAB1 and PIKFYVE TDP-43 yeast models.

Chain of full-length human PIKFYVE (Q9Y2I7 whole entry S696N/L932S/Q995L/T998S/S1033A/Q1183K, the tested form may be a part): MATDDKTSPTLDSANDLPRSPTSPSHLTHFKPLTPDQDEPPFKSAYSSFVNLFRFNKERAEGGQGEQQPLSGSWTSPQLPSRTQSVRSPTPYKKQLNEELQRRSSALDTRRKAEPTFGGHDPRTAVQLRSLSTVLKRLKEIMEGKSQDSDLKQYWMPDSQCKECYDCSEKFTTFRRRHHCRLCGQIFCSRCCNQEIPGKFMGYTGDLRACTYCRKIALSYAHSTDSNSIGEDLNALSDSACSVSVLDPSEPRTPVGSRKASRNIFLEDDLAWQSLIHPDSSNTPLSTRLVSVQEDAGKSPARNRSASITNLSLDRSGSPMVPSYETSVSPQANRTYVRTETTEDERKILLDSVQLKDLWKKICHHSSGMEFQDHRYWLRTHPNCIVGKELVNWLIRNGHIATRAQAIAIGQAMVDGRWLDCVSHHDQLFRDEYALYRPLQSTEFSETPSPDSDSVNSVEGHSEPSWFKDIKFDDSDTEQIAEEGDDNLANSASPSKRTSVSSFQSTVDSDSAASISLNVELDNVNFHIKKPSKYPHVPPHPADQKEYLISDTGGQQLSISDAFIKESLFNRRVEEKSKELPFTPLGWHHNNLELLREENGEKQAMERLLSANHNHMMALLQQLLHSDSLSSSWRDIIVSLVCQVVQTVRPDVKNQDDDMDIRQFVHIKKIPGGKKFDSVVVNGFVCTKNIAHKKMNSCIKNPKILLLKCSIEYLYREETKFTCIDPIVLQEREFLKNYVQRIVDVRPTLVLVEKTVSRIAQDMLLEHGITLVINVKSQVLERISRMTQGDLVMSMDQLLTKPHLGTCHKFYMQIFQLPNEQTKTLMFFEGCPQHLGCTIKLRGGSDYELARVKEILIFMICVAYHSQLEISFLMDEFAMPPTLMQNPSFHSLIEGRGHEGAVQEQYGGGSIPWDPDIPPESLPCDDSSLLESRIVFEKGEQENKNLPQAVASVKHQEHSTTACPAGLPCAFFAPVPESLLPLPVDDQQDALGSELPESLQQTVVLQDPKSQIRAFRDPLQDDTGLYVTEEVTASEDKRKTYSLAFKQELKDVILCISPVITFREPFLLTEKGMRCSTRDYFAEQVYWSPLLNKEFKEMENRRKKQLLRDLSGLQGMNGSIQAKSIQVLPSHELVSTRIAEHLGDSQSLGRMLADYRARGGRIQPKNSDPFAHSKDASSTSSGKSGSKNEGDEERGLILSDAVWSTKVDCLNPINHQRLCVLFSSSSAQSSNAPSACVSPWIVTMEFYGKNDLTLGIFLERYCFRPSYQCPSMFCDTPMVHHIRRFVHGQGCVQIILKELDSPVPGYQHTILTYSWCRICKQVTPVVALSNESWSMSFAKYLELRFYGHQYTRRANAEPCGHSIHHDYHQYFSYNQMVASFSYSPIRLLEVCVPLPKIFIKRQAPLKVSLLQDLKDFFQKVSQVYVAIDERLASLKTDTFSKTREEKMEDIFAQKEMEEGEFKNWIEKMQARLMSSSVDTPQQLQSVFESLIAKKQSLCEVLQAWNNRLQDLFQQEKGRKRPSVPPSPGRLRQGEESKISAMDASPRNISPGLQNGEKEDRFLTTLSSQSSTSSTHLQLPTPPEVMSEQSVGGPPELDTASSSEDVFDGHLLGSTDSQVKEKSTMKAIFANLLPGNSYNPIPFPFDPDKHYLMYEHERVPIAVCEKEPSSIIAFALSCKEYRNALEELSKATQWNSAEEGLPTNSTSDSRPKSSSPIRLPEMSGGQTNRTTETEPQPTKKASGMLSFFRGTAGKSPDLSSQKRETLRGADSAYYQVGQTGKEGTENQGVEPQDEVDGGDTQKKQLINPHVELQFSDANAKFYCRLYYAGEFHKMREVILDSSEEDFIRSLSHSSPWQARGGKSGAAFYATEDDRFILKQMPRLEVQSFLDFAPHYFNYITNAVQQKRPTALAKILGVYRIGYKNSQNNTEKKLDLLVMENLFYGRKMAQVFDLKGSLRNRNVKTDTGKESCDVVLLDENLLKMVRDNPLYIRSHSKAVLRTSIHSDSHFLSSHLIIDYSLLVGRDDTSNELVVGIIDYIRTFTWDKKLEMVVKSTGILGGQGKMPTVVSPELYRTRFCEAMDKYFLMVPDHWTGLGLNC

Compound	IC50
c1cc(-c2cc3nc(-n4ccc(C5CCCNC5)n4)cc(N4CCOCC4)n3n2)ccn1 (single isomer, unassigned) [Compound 76, 4-(5-(3-(piperidin-3-yl)-1H-pyrazol-1-yl)-2-(pyridin-4-yl)pyrazolo[1,5-a]pyrimidin-7-yl)morpholine]	100 to 1000 nM
4-(5-(3-(2-fluorophenyl)-1H-pyrazol-1-yl)-2-(tetrahydrofuran-2-yl)pyrazolo[1,5-a]pyrimidin-7-yl)morpholine [Compound 91]	100 to 1000 nM
O=C1C(c2ccccc2)CCCN1c1cc(N2CCOCC2)n2nc(-c3ccncc3)cc2n1 (stereo not shown) [Compound 24, 1-(7-morpholino-2-(pyridin-4-yl)pyrazolo[1,5-a]pyrimidin-5-yl)-3-phenylpiperidin-2-one]	1000 to 10000 nM
c1cc(-c2cc3nc(-n4ccc(C5CCCOC5)n4)cc(N4CCOCC4)n3n2)ccn1 (stereo not shown) [Compound 61, 4-(2-(pyridin-4-yl)-5-(3-(tetrahydro-2H-pyran-3-yl)-1H-pyrazol-1-yl)pyrazolo[1,5-a]pyrimidin-7-yl)morpholine]	1000 to 10000 nM
O=C1CC(c2ccccc2)CN1c1cc(N2CCOCC2)n2nc(-c3ccncc3)cc2n1 (stereo not shown) [Compound 25, 1-(7-morpholino-2-(pyridin-4-yl)pyrazolo[1,5-a]pyrimidin-5-yl)-4-phenylpyrrolidin-2-one]	1000 to 10000 nM
C1=C(c2cn(-c3cc(N4CCOCC4)n4nc(-c5ccncc5)cc4n3)cn2)CNCC1 [Compound 17, 4-(2-(pyridin-4-yl)-5-(4-(1,2,5,6-tetrahydropyridin-3-yl)-1H-imidazol-1-yl)pyrazolo[1,5-a]pyrimidin-7-yl)morpholine]	1000 to 10000 nM
COc1cnn(-c2cc(N3CCOCC3)n3nc(-c4ccncc4)cc3n2)c(=O)c1Br [Compound 7, 4-bromo-5-methoxy-2-(7-morpholino-2-(pyridin-4-yl)pyrazolo[1,5-a]pyrimidin-5-yl)pyridazin-3(2H)-one]	1000 to 10000 nM
Fc1ccc(Oc2ncccc2-c2cc(N3CCOCC3)n3nc(-c4ccncc4)cc3n2)cc1 [Compound 138, 4-(5-(2-(4-fluorophenoxy)pyridin-3-yl)-2-(pyridin-4-yl)pyrazolo[1,5-a]pyrimidin-7-yl)morpholine]	100 to 1000 nM
c1ccc(C2CN(c3cc(N4CCOCC4)n4nc(-c5ccncc5)cc4n3)CCN2)cc1 (stereo not shown) [Compound 35, 4-(5-(3-phenylpiperazin-1-yl)-2-(pyridin-4-yl)pyrazolo[1,5-a]pyrimidin-7-yl)morpholine]	1000 to 10000 nM
c1cc(-c2cc3nc(-n4ccc(C5CCCNC5)n4)cc(N4CCOCC4)n3n2)ccn1 (stereo not shown) [Compound 67, 4-(5-(3-(piperidin-3-yl)-1H-pyrazol-1-yl)-2-(pyridin-4-yl)pyrazolo[1,5-a]pyrimidin-7-yl)morpholine]	100 to 1000 nM
c1ccc(Oc2ncccc2-c2cc(N3CCOCC3)n3nc(-c4ccncc4)cc3n2)cc1 [Compound 42, 4-(5-(2-phenoxypyridin-3-yl)-2-(pyridin-4-yl)pyrazolo[1,5-a]pyrimidin-7-yl)morpholine]	100 to 1000 nM
c1cc(-c2cc3nc(-n4cc5c(n4)CCCC5)cc(N4CCOCC4)n3n2)ccn1 [Compound 85, 4-(2-(pyridin-4-yl)-5-(4,5,6,7-tetrahydro-2H-indazol-2-yl)pyrazolo[1,5-a]pyrimidin-7-yl)morpholine]	100 to 1000 nM
Cc1cccc(CCOc2cc(N3CCOCC3)n3nc(-c4ccncc4)cc3n2)c1 [Compound 2, 4-(5-(3-methylphenethoxy)-2-(pyridin-4-yl)pyrazolo[1,5-a]pyrimidin-7-yl)morpholine]	1000 to 10000 nM
c1ccc(-c2nc(-c3cc(N4CCOCC4)n4nc(-c5ccncc5)cc4n3)ns2)cc1 [Compound 128, 4-(5-(5-phenyl-1,2,4-thiadiazol-3-yl)-2-(pyridin-4-yl)pyrazolo[1,5-a]pyrimidin-7-yl)morpholine]	10 to 100 nM
N#Cc1cc(N2CCOCC2)n2nc(-c3ccncc3)cc2n1 [Compound 103, 7-morpholino-2-(pyridin-4-yl)pyrazolo[1,5-a]pyrimidine-5-carbonitrile]	> 10000 nM
c1cc(-c2cc3nc(-n4ccc(C5CCNCC5)n4)cc(N4CCOCC4)n3n2)ccn1 [Compound 62, 4-(5-(3-(piperidin-4-yl)-1H-pyrazol-1-yl)-2-(pyridin-4-yl)pyrazolo[1,5-a]pyrimidin-7-yl)morpholine]	100 to 1000 nM
c1cncc(-n2nccc2-c2cc(N3CCOCC3)n3nc(-c4ccncc4)cc3n2)c1 [Compound 12, 4-(5-(1-(pyridin-3-yl)-1H-pyrazol-5-yl)-2-(pyridin-4-yl)pyrazolo[1,5-a]pyrimidin-7-yl)morpholine]	1000 to 10000 nM

Compound	IC50
c1ccc(Cc2ncccc2-c2cc(N3CCOCC3)n3nc(-c4ccncc4)cc3n2)cc1 [Compound 39, 4-(5-(2-benzylpyridin-3-yl)-2-(pyridin-4-yl)pyrazolo[1,5-a]pyrimidin-7-yl)morpholine]	1000 to 10000 nM
c1ccc(-c2ccn(-c3cc(N4CCOCC4)n4nc(-c5ccncc5)cc4n3)n2)cc1 [Compound 148]	10 to 100 nM
O=c1c(-c2ccccc2)ccnn1-c1cc(N2CCOCC2)n2nc(-c3ccncc3)cc2n1 [Compound 5, 2-(7-morpholino-2-(pyridin-4-yl)pyrazolo[1,5-a]pyrimidin-5-yl)-4-phenylpyridazin-3(2H)-one]	100 to 1000 nM
NC(=O)c1cc(N2CCOCC2)n2nc(-c3ccncc3)cc2n1 [Compound 102, 7-morpholino-2-(pyridin-4-yl)pyrazolo[1,5-a]pyrimidine-5-carboxamide]	1000 to 10000 nM
CCOC(=O)Cc1cc(N2CCOCC2)n2nc(-c3ccncc3)cc2n1 [Compound 133, ethyl 2-(7-morpholino-2-(pyridin-4-yl)pyrazolo[1,5-a]pyrimidin-5-yl)acetate]	1000 to 10000 nM
Cc1cccc(/C=N/Nc2cc(N3CC4CC3CO4)n3nc(-c4ccncc4)cc3n2)c1 (stereo not shown) [Compound 1, (E)-5-(5-(2-(3-methylbenzylidene)hydrazinyl)-2-(pyridin-4-yl)pyrazolo[1,5-a]pyrimidin-7-yl)-2-oxa-5-azabicyclo[2.2.1]heptane]	10 to 100 nM
OCC(O)c1cc2nc(-n3ccc(-c4ccccc4)n3)cc(N3CCOCC3)n2n1 (stereo not shown) [Compound 144, 1-(7-morpholino-5-(3-phenyl-1H-pyrazol-1-yl)pyrazolo[1,5-a]pyrimidin-2-yl)ethane-1,2-diol]	10 to 100 nM
Oc1cc(C2CCCCC2)nn1-c1cc(N2CCOCC2)n2nc(-c3ccncc3)cc2n1 [Compound 49, 3-cyclohexyl-1-(7-morpholino-2-(pyridin-4-yl)pyrazolo[1,5-a]pyrimidin-5-yl)-1H-pyrazol-5-ol]	100 to 1000 nM
c1ccc(C2CCCN(c3cc(N4CCOCC4)n4nc(-c5ccncc5)cc4n3)C2)cc1 (stereo not shown) [Compound 34, 4-(5-(3-phenylpiperidin-1-yl)-2-(pyridin-4-yl)pyrazolo[1,5-a]pyrimidin-7-yl)morpholine]	1000 to 10000 nM
c1cc(-c2cc3nc(-n4ncc5c4CCCC5)cc(N4CCOCC4)n3n2)ccn1 [Compound 86, 4-(2-(pyridin-4-yl)-5-(4,5,6,7-tetrahydro-1H-indazol-1-yl)pyrazolo[1,5-a]pyrimidin-7-yl)morpholine]	1000 to 10000 nM
4-(5-(3-(3-fluorophenyl)-1H-pyrazol-1-yl)-2-(pyridin-4-yl)pyrazolo[1,5-a]pyrimidin-7-yl)morpholine [Compound 64]	10 to 100 nM
Fc1cccc(-c2nccc(-c3cc(N4CCOCC4)n4nc(-c5ccncc5)cc4n3)n2)c1 [Compound 139, 4-(5-(2-(3-fluorophenyl)pyrimidin-4-yl)-2-(pyridin-4-yl)pyrazolo[1,5-a]pyrimidin-7-yl)morpholine]	100 to 1000 nM
Cc1ccccc1-c1cc(O)n(-c2cc(N3CCOCC3)n3nc(-c4ccncc4)cc3n2)n1 [Compound 46, 1-(7-morpholino-2-(pyridin-4-yl)pyrazolo[1,5-a]pyrimidin-5-yl)-3-(o-tolyl)-1H-pyrazol-5-ol]	10 to 100 nM
Oc1cc(-c2cc(N3CCOCC3)n3nc(-c4ccncc4)cc3n2)nn1-c1cccnc1 [Compound 58, 3-(7-morpholino-2-(pyridin-4-yl)pyrazolo[1,5-a]pyrimidin-5-yl)-1-(pyridin-3-yl)-1H-pyrazol-5-ol]	10 to 100 nM
c1ccc(Cc2nccc(-c3cc(N4CCOCC4)n4nc(-c5ccncc5)cc4n3)n2)cc1 [Compound 140, 4-(5-(2-benzylpyrimidin-4-yl)-2-(pyridin-4-yl)pyrazolo[1,5-a]pyrimidin-7-yl)morpholine]	100 to 1000 nM
Oc1cc(-c2cncnc2)nn1-c1cc(N2CCOCC2)n2nc(-c3ccncc3)cc2n1 [Compound 44, 1-(7-morpholino-2-(pyridin-4-yl)pyrazolo[1,5-a]pyrimidin-5-yl)-3-(pyrimidin-5-yl)-1H-pyrazol-5-ol]	100 to 1000 nM
CC(C)(C)OC(=O)N1CCN(c2cc(N3CCOCC3)n3nc(-c4ccncc4)cc3n2)C(Cc2ccccc2)C1 (stereo not shown) [Compound 116, tert-butyl 3-benzyl-4-(7-morpholino-2-(pyridin-4-yl)pyrazolo[1,5-a]pyrimidin-5-yl)piperazine-1-carboxylate]	1000 to 10000 nM
